How the values were obtained:
Format in all cases: in vivo, mouse
[1] = system: Ang II-induced dermal fibrosis; test: Ang II-induced dermal fibrosis, preventive model, Sirius Red; settings: Ang II 1.0 mg kg^- min^- two weeks, 20 mg/kg oral gavage
Experimental: The local renin angiotensin system exists in almost all organs, including skin. Ang II induces fibrosis in the skin via accumulation of activated fibroblasts. Dermal fibrosis was induced in mice by infusion of Ang II (1.0 mg kg^− min^−) for two weeks. The treatment with the compound of Formula (VIII) by oral gavage was the same as describe in Example 2. After two weeks of treatment, the mice were sacrificed under ether anesthesia. Skin samples were collected and fixed in 4% paraformaldehyde and embedded in paraffin. Skin sections (5 μm) were stained with Sirius Red for evaluation of fibrosis. Subcutaneous Ang II infusion induced a significant increase of collagen content and in the mice treated with compound, the induction of fibrosis in the skin is prevented (FIG. 11).

[2] = system: Ang II-induced cardiac inflammation and fibrosis; test: Immunohistochemistry of inflammatory and fibrotic markers (F4/80, TNC) in left ventricle, Ang II preventive model; settings: 20 mg/kg oral, compared with Ang II untreated mice
Experimental: Macrophages accumulation are the hallmark of Ang II-induced fibrosis and play important roles during the inflammatory phase. Macrophage accumulation was identified by staining with a mAb that identifies F4/80^+ cells (FIG. 3). TNC is an ECM molecule that is expressed in response to injury in various tissues. Although not detectable in the normal adult heart, it was expressed under pathological conditions (FIG. 4).
Heart sections (Left ventricle) ([…]) were deparaffinized and boiled for 10 minutes in sodium citrate buffer (10 mM, pH 6.0) (Sigma-Aldrich, Madrid, Spain) for antigen retrieval. The sections were then incubated in a PBS washing buffer containing 0.1% Tween (Sigma-Aldrich, Madrid, Spain) three times for 10 minutes. The sections were incubated overnight at 4° C. with the following antibodies; for immunohistochemical detection of macrophages F4/80 antibody (1:50; MCA497, Bio-Rad) or with monoclonal anti-TNC (1:100 dilution, #MAB2138, RD system, Mineapolis, Minn., USA) were used for detection of this ECM protein. Slides were developed with diaminobenzidine chromogen (Agilent, Santa Clara, Calif., USA) and counterstained in Harris hematoxylin (Sigma-Aldrich, Madrid, Spain). Slides were photographed, digitalized using a Leica DFC420c camera and analyzed using Image J software.

[3] = system: Ang II-induced cardiac fibrosis; test: Ang II therapeutic model: perivascular myocardial collagen deposition; settings: Ang II 500 ng kg^- min^- 28 days, 20 mg/kg oral during last 14 days, ##p<0.01 versus Ang II group
Experimental: For the therapeutic model, infusion of Ang II for four weeks and the compound of Formula (VIII) (20 mg/kg) was administrated after two weeks of pump implantation. Subcutaneous infusion of Ang II using ALZET osmotic minipumps was used to study the preventive effects of the compound ALZET® osmotic minipumps (Model #2004, Charles Rives, Barcelona, Spain) delivering of Ang II (500 ng kg^−1 min^−1) (Sigma-Aldrich, Madrid, Spain) for four weeks. Compound treatment was daily administered in parallel, two weeks after the implantation of the subcutaneous pump, beneath the midscapular loose skin and consisted of daily oral gavage of compound of Formula (VIII) (20 mg/kg) or vehicle (Corn Oil/Maisine CC, 1/1). Mice were acclimated to manipulators for a week previously to the experiments in order to reduce stress and allow the detection of subtle changes in behavior by researchers. […] Neither piloerection nor hunched appearances were appreciated during the experimental procedures. Mice were sacrificed by cervical dislocation and the heart, aorta, kidney, and lung were removed and processed for histological examination or were frozen for further analysis.

[4] = system: cardiac myofibroblast proliferation; test: Ki67 immunostaining of left ventricle sections (myofibroblast proliferation), Ang II preventive model; settings: two weeks after Ang II infusion; ###p<0.001 versus Ang II group
Experimental: Proliferation of fibroblast is an important event of Ang II-induced fibrosis and plays an important role in cardiac fibrosis. […] Ki 67 is a protein that is encoded by the MKI67 gene and is a cellular marker for proliferation. Cardiac tissue sections ([…]) were deparaffinized and boiled for 10 minutes in sodium citrate buffer (10 mM, pH 6.0) (Sigma-Aldrich, Madrid, Spain) for antigen retrieval. The sections were then incubated in a PBS washing buffer containing 0.1% Triton X-100 (Sigma-Aldrich, Madrid, Spain) three times for 10 minutes. Nonspecific binding was blocked with 3% bovine serum albumin (BSA) (Sigma-Aldrich, Madrid, Spain). The sections were incubated overnight at 4° C. with Ki 67 antibody (1:100 dilution, ab15580, Abcam, Cambridge, UK). After three washes for 10 minutes each in wash buffer, slides were incubated with secondary antibody anti-rabbit Texas Red (1:100 dilution, #A-6399, Thermo Fischer Scientific, Waltham, Mass., USA) for 1 hour at room temperature in the dark. […] All images were acquired using a spectral confocal laser-scanning microscope LSM710, (Zeiss, Jena, Germany) with a 63× Plan-Apochromat oil immersion lens and quantified in 10-15 randomly chosen fields using ImageJ software (rsb.info.nih.gov/ij/).

[5] = system: Ang II-induced renal fibrosis; test: Ang II-induced renal fibrosis, preventive model, Sirius Red; settings: Ang II 1.0 mg kg^- min^- two weeks, 20 mg/kg oral gavage
Experimental: Ang II is the main peptide of the renin angiotensin system and a renal growth factor, inducing hyperplasia/hypertrophy depending on the cell type, and it induces renal fibrosis. Renal fibrosis was induced in mice by infusion of Ang II (1.0 mg kg^− min^−) for two weeks. The treatment with the compound of Formula (VIII) by oral gavage was the same as describe in Example 2. After two weeks of treatment, the mice were sacrificed under ether anesthesia. Kidney samples were collected and fixed in 4% paraformaldehyde and embedded in paraffin. The paraffin sections (5 μm) were stained with Sirius Red for evaluation of fibrosis. Subcutaneous Ang II infusion induced a significant increase of collagen content and in the mice treated with compound, the induction of fibrosis in the kidney is prevented (FIG. 10).

E2F pathway = test: Real-time quantitative PCR of E2F pathway markers in cardiac tissue, Ang II preventive model; settings: Ang II mice; #p<0.05 versus Ang II group

In the case of `C=C(C)C1CCC(C)=C[C@H]1C1=C(O)C(=O)C(CCCCC)=C(NCc2ccccc2)C1=O` (stereo partly drawn) [Formula (VIII)], the “induction of fibrosis in the skin (collagen content)” value [1] is reported as “prevented”, the “TNC marker in left ventricle (immunostaining)” value [2] is reported as “significantly reduced” and the “infiltration of F4/80+ macrophages in myocardial tissue” value [2] is reported as “significantly reduced”. For the same molecule, the “Ang II perivascular myocardial collagen deposition” value [3] was “reduced”, the “myofibroblast proliferation in left ventricle (Ki67-positive cells)” value [4] was “reduced” and the “induction of fibrosis in the kidney (collagen content)” value [5] was “prevented”. The “CDK1 gene expression in cardiac tissue” value (E2F pathway) was “down regulated”, the “MKi67 gene expression in cardiac tissue” value (E2F pathway) was “down regulated” and the “TOP2A gene expression in cardiac tissue” value (E2F pathway) was “down regulated”.
